Measured values as given in article PMC9643865, “Bromo-protopine, a novel protopine derivative, alleviates tau pathology by activating chaperone-mediated autophagy for Alzheimer’s disease therapy” (Frontiers in Molecular Biosciences, 2022).
Like-named read-outs stand apart in the source and are kept apart here.

How the values were obtained:
P301S mice = test: Brain immunoblotting (sarkosyl tau fractions, chaperones, LAMP2A) and IHC; assay type: in vivo
Protocol: Female homozygous P301S mice bearing the transgene for MAPT (P301S), were generous gifts from Michael Goedert. P301S-tau mice (1.5-month-old, n = 8) were administered with PRO-Br daily for 2.5 months. The mice models employed in the study were maintained under 12 h light-dark cycles and were provided ad libitum access to chow and water.
Brain tissues from experimental mice were carefully isolated, washed with 1X PBS, and fixed with 4% paraformaldehyde. Post-fixation for 48 h, brain tissues were transferred to 30% sucrose solution for cryopreservation. Tissue sections (30 μm) were obtained using a cryotome, maintained at a constant -30°C. Permeabilization was performed with 0.4% triton-X-100 for 10 min. For tau immunofluorescence, PHF1 primary antibody was added, and sections were kept overnight at four°C. The following day, an appropriate secondary antibody was added at RT for 1.5 h. DAPI was used as a nuclear stain for 5 min. For DAB staining, AT8 primary antibody was added to the sections overnight. The next day, an appropriate secondary antibody was added for 1.5 h. Staining was performed by employing a Vectastain-ELITE ABC-HRP kit according to the manufacturer’s procedure. […] Images of cortical/hippocampal regions were taken with an Eclipse 80i fluorescence microscope (Nikon Instruments Inc.). […] The captured images were quantified using ImageJ (NIH) software.
Brain tissues of 3xTg-AD and P301S mice were separated, sagittally, into equal halves. […] Protein lysates were evaluated for changes in levels of phospho epitopes of tau (AT8, CP13, PHF-1, MC-1, and ALZ50), and for total htau (HT7) using Western blot.
After PRO-Br treatment, cells were solubilised using cold RIPA lysis buffer (9803, Life Technologies), containing protease and phosphatase inhibitor tablets. […] Total protein concentration was determined by BCA protein assay, and the samples were separated on SDS-PAGE and transferred to PVDF membranes. […] Films were scanned, and the relative intensities of the signals were analyzed using ImageJ software.

[1] = Pharmacokinetic study in brain and plasma after oral dosing, LC-MS/MS; assay type: in vivo, ICR mice
Protocol: To determine the amount of PRO-Br in the brain, a pharmacokinetic study was performed employing 3-month-old female ICR mice (n = 6, 30 ± 2 g). PRO-Br (10 mg/kg b. wt) was injected orally. Brain tissues and blood samples (intracardial) were collected at various time-points (0, 15, 30, 45, 60, 75, 120, 240, 360, 480 min). Brain tissues and plasma samples were kept at −80°C until analysis. On the day of analysing the samples, the brain tissues were thawed on ice and half brain tissue was taken for analysis. To 200 mg of tissue, 4 times the volume of methanol (100%) was added, and homogenized until a clear solution was observed. The samples were centrifuged at 15,000 RPM for 10 min at 4°C. The supernatant was separated and analyzed using LC-MS/MS.
Quantification of PRO-Br in mice brains was performed by Agilent 6410 LC-ESI-Triple-Quad/TOF. The mobile phase (A) consisted of water with 0.1% formic acid, and the mobile phase (B) consisted of acetonitrile with 0.1% formic acid (B). C18 column was used to elute the desired solutes, based on the protocol: 0–5 min, 23–50% B; 5–15 min, 50–60% B; 15–15.01 min, 60–95% B; 15.01–22 min, 95% B. The ions of PRO-Br were detected in positive ionization mode. Multiple reaction monitoring (MRM) mode was used to monitor the analytes of PRO-Br.

N2A cells = test: LAMP2A / HSC70 expression; assay type: cell-based, mouse; settings: compared to Trehalose (positive control)
Protocol: (§1) SHSY5Y cells stably-expressing mutant tau (SHSYP301L) were cultured in DMEM/F12 + 15% FBS, 3 μg/ml Blasticidin S HCl, and 1X PSN. N2A mouse neuroblastoma and mouse hippocampal neuronal (HT22) cells were cultured in DMEM+10% FBS, and 1X PSN. Sterile complete medium containing PRO-Br was added to the cells, and they were then incubated for 24 h at an optimum temperature of 37°C in a sterile 5% CO2 incubator.
(§2) After PRO-Br treatment, cells were solubilised using cold RIPA lysis buffer (9803, Life Technologies), containing protease and phosphatase inhibitor tablets. Cells were sonicated and centrifuged at 14000 rpm for 15 min. Total protein concentration was determined by BCA protein assay, and the samples were separated on SDS-PAGE and transferred to PVDF membranes. The membranes were blocked, washed, and incubated with primary antibodies (Table 1), and incubated at 4°C, overnight. The membranes were further incubated with the required dilutions of secondary antibody for 1 h, at RT. The chemiluminescent signals were captured using x-ray film in a darkroom, with an appropriate chemiluminescent substrate kit (ThermoFisher Scientific, United States). Films were scanned, and the relative intensities of the signals were analyzed using ImageJ software.

SHSYP301L cells = test: Immunoblotting of tau, Ac-α-tubulin and chaperones in tau-overexpressing cells; assay type: cell-based
Protocol: as §1, §2

3xTg-AD mice = test: Brain immunoblotting (sarkosyl tau fractions, chaperones, LAMP2A) and IHC; assay type: in vivo
Protocol: Female homozygous 3xTg-AD mice carrying transgenes for APP (Swedish KM670/671Nl), MAPT (tauP301L) and Psen1 (M146V) were procured from Jackson’s Laboratory (# 004807). The transgenic mice colonies were bred and maintained in the HKBU animal house at 23 ± 2 °C, 60 ± 15% relative humidity with regular access to food and water. Seven-month-old 3xTg-AD mice were randomly segregated into three treatment groups: Tg-Vehicle, 1 mg/kg, and 2.5 mg/kg PRO-Br. PRO-Br was administered orally for 8 months (n = 8). The bodyweight of mice from all the groups was recorded once every week.
Brain tissues from experimental mice were carefully isolated, washed with 1X PBS, and fixed with 4% paraformaldehyde. Post-fixation for 48 h, brain tissues were transferred to 30% sucrose solution for cryopreservation. Tissue sections (30 μm) were obtained using a cryotome, maintained at a constant -30°C. Permeabilization was performed with 0.4% triton-X-100 for 10 min. For tau immunofluorescence, PHF1 primary antibody was added, and sections were kept overnight at four°C. The following day, an appropriate secondary antibody was added at RT for 1.5 h. DAPI was used as a nuclear stain for 5 min. For DAB staining, AT8 primary antibody was added to the sections overnight. The next day, an appropriate secondary antibody was added for 1.5 h. Staining was performed by employing a Vectastain-ELITE ABC-HRP kit according to the manufacturer’s procedure. The stained sections were carefully arranged on glass slides and mounted with an appropriate mounting medium under a coverslip. Images of cortical/hippocampal regions were taken with an Eclipse 80i fluorescence microscope (Nikon Instruments Inc.). The threshold was adjusted to remove the background staining. The captured images were quantified using ImageJ (NIH) software.
Brain tissues of 3xTg-AD and P301S mice were separated, sagittally, into equal halves. One-half was lysed with tissue lysis buffer augmented with phosphatase and protease inhibitor cocktail tablets, while the other half was used for immunohistochemical analysis. Brain tissues were homogenized on ice using an Ultra Turrax tissue homogenizer. Brain tissue homogenate was subjected to sarkosyl differential centrifugation with 1% sarkosyl to separate the non-pathogenic soluble and pathogenic insoluble tau fractions. Protein lysates were evaluated for changes in levels of phospho epitopes of tau (AT8, CP13, PHF-1, MC-1, and ALZ50), and for total htau (HT7) using Western blot.
as §2

CN1CCc2cc3c(cc2C(=O)Cc2c(Br)cc4c(c2C1)OCO4)OCO3 [PRO-Br, bromo-protopine]
AT8- and PHF1-positive cell counts (P301S mice; IHC): significantly reduced
expression of sarkosyl-insoluble phospho-tau variants (P301S mice; brain, immunoblotting): specifically reduced the expression of sarkosyl-insoluble phospho-tau variants in a dose-dependent manner
protein expression of LAMP2A (P301S mice; brain, immunoblotting): dose-dependently increased
time retained in the brain ([1]; 10 mg/kg oral, female ICR mice, brain): 4.2 h
brain penetrating efficacy ([1]; compared to PRO): superior compared to its parent compound
Kp ([1]; mouse, brain, 10 mg/kg oral, female ICR mice, read-out: brain/plasma ratio): 8.08
Cmax ([1]; mouse, 10 mg/kg oral, female ICR mice, brain, read-out: maximum concentration (Cmax) in the brain): 425 ng/g
Tmax ([1]; mouse, 10 mg/kg oral, female ICR mice, brain, read-out: maximum time (Tmax) in the brain (converted)): 30 min
Cmax ([1]; mouse, 10 mg/kg oral, female ICR mice, plasma, read-out: Cmax in the plasma): 91.9 ng/mL
Tmax ([1]; mouse, 10 mg/kg oral, female ICR mice, plasma, read-out: Tmax in the plasma (converted)): 15 min
expression of LAMP2A and HSC70 (N2A cells): increased expression of LAMP2A and HSC70
PHF1 and TAU5 levels (SHSYP301L cells; 24 h): simultaneously reducing PHF1 and TAU5 levels
expression of HSP70 (SHSYP301L cells; 24 h): significantly and dose-dependently augmented the expression of HSP70
acetylation of α-tubulin (SHSYP301L cells; compared to PRO): enhanced the acetylation of α-tubulin
PHF1 degradation on co-treatment with CMA/lysosomal protease inhibitors E64D and pepstatin (SHSYP301L cells; compared to PRO-Br treatment alone): significantly blocked the degradation of PHF1 levels
tau/PHF1-reducing activity (SHSYP301L cells; preliminary screening): good tau/PHF1-reducing activity
PHF1 degradation on co-treatment with MG132, Wortmannin or Chloroquine (SHSYP301L cells; proteasome, autophagy or lysosome inhibitor co-treatment): did not block PRO-Br-mediated PHF1 degradation
AT8-positive cell count in the cortico-hippocampal regions (3xTg-AD mice; 1.0 and 2.5 mg/kg, IHC): significantly reduced AT8-positive cell count
acetylation of HSP90 (K294) (3xTg-AD mice; brain, immunoblotting): dose-dependently enhanced the acetylation of HSP90 (K294)
expression of sarkosyl-insoluble phospho-tau variants (3xTg-AD mice; brain, immunoblotting): specifically reduced the expression of sarkosyl-insoluble phospho-tau variants in a dose-dependent manner
heat shock proteins HSP70 and HSC70 (3xTg-AD mice; brain, immunoblotting): dose-dependently increased the heat shock proteins HSP70 and HSC70
protein expression of LAMP2A (3xTg-AD mice; brain, immunoblotting): dose-dependently increased
